Two compounds from US20110003692A1, “HERBICIDALLY AND INSECTICIDALLY ACTIVE PHENYL-SUBSTITUTED PYRIDAZINONES” (BAYER CROPSCIENCE AG, priority 2008, published 2011) can be followed below.

The structures appear in SMILES notation.

The subject of series [1] is eggs from the tobacco budworm (Heliotis virescens). The series is described as follows: Heliothis virescens test (spray treatment). It is filed as in vivo. The note with it: application rate 500 g/ha, spray on soybean leaves, after 7 days. As to the method:
• 78.0 parts by weight of acetone • 1.5 parts by weight of dimethylformamide Emulsifier: 0.5 part by weight of alkylaryl polyglycol ether
To produce a suitable preparation of active compound, 1 part by weight of active compound is mixed with the stated amounts of solvents and emulsifier, and the concentrate is diluted with emulsifier-containing water to the desired concentration. Soybean leaves (Glycine max.) are sprayed with an active compound preparation of the desired concentration and populated with eggs from the tobacco budworm (Heliotis virescens). After 7 days, the effect in % is determined. 100% means that all eggs have been killed, 0% means that no eggs have been killed.

On to `CC(C)(C)n1ncc(O)c(-c2ccc(Cl)cc2Cl)c1=O` [I-1-a-5], for which, in series [1], the “effect in % (eggs killed)” value is on record as “at least 80%”.

`COc1cnn(C)c(=O)c1-c1ccc(Cl)c(Cl)c1` [I-1-h-1, 4-(3,4-dichlorophenyl)-5-methoxy-2-methyl-3(2H)-pyridazinone] came in with a melting point of 176 °C.
